Where a name gives a salt, the structure may show the parent alone. Read-outs that look alike come from different tables or passages of the source.
System: inflamed rat hind paw
Test: Randall-Selitto test in rats (carrageenan-induced acute inflammation, mechanical nociceptive threshold)
Details: for ED50: Rattus norvegicus, 0.25 h, read-out: ED50 (substance applied alone); for timepoint of peak effect: p. appl., timepoint of first measurement; for timepoint of peak effect / analgesic effect: substance applied alone; for analgesic effect: i.p.

| Compound | ED50 (iv) | timepoint of peak effect | ED50 (ip) | analgesic effect |
| --- | --- | --- | --- | --- |
| CC[C@@H](c1cccc(O)c1)[C@@H](C)CN(C)C [tapentadol hydrochloride] | 1.75 mg/kg | 15 min |  |  |
| CNC1(c2ccccc2Cl)CCCCC1=O (racemic) [ketamine hydrochloride, (R,S)-ketamine hydrochloride] |  | 15 min | 20.2 mg/kg | dose-dependent analgesic effect |
| CC12CC3CC(C)(C1)CC(N)(C3)C2 [memantine hydrochloride] |  | 15 min | 19.1 mg/kg | dose-dependent analgesic effect |
